Publication PMC6136712, “Ex vivo drug sensitivity testing as a means for drug repurposing in esophageal adenocarcinoma” (PLoS ONE, 2018)
Where a name gives a salt, the structure may show the parent alone. Read-outs that look alike come from different tables or passages of the source.

Tested on: normal esophageal epithelium cell line EACN42
Assay: FDA library drug sensitivity testing (CellTiter-Glo, 72 h), normal control cells
Assay type: cell-based, human
Set-up: key to DSS: modified drug sensitivity score (DSSmod) from dose-response curve fit
Conditions: for EC50: cell viability (ATP), max test concentration 10μM
Description: The normal esophageal epithelium cell line EACN42 was established in the Capobianco laboratory. The cell lines was derived from human normal epithelium and immortalized using HPV E6-E7.
Drug sensitivity testing (DST) was performed as described previously. […] Individual drugs were dissolved in 100% DMSO and tested in duplicates starting at a maximal test concentration of 10μM then over a 20,000-fold concentration range to generate dose response curves. Wells with assay buffer containing DMSO served as negative controls. 1000 exponentially growing cells were seeded per well in 384-well micro-titer plates and incubated in the presence of compounds in a humidified environment at 37°C and 5% CO2. After 72 hours of treatment, cell viability was assessed by measuring ATP levels via bioluminescence (CellTiter-Glo, Promega) according to manufactures recommendations. Interpretation of curve parameters was performed according to the modified drug sensitivity scoring (DSSmod) function developed by Swords et al. […] Given in this way, the sDSSmod incorporated information on each drug’s potency, efficacy, effect range and therapeutic index, making it possible to prioritize compounds over multiple parameters using a single numerical metric. […] All calculations and scoring routines are implemented in MatLab and additional curve fitting and statistical analyses are performed in GraphPad prism.

[1] = drug sensitivity score, EACN42 normal esophageal cells, 72 h
[2] = Homo sapiens, 72 h, EACN42 normal esophageal cells
[3] = EACN42 normal esophageal cells, 72 h

Structure (SMILES)	DSS [1]	also measured
CN(N=O)C(=O)N[C@H]1C(O)O[C@H](CO)[C@@H](O)[C@@H]1O (mixture of isomers) [Streptozotocin]	0	
COc1cc2c(cc1O)CC[C@@H]1[C@@H]2CC[C@]2(C)[C@@H](O)CC[C@@H]12 [2-Methoxyestradiol]	0.26	EC50 [2]: > 10 µM
CC(=O)O[C@@]12CO[C@@H]1C[C@H](O)[C@@]1(C)C(=O)[C@H](O)C3=C(C)[C@@H](O)C[C@@](O)([C@@H](OC(=O)c4ccccc4)[C@H]21)C3(C)C [10-DAB]	0.01	EC50 [3]: 5.48 µM
CC(=O)O[C@H]1CC[C@@]2(C)C(=CC[C@@H]3[C@@H]2CC[C@]2(C)C(c4cccnc4)=CC[C@@H]32)C1 [Abiraterone Acetate]	0	
C[C@]12CC[C@H](O)CC1=CC[C@@H]1[C@@H]2CC[C@]2(C)C(c3cccnc3)=CC[C@@H]12 [Abiraterone]	0	
Cl.Nc1ncnc2nc[nH]c12 [Adenine hydrochloride]	0	EC50 [3]: 0.01 µM
Nc1ncnc2nc[nH]c12.Nc1ncnc2nc[nH]c12.O=S(=O)(O)O [Adenine sulfate]	0	EC50 [3]: 0.25 µM
Nc1ncnc2[nH]cnc12 [Adenine]	0	
CN(C)C/C=C/C(=O)Nc1cc2c(Nc3ccc(F)c(Cl)c3)ncnc2cc1O[C@H]1CCOC1 [Afatinib]	0.12	EC50 [2]: 4.61 µM
CN(C)c1nc(N(C)C)nc(N(C)C)n1 [Altretamine]	0	
CCC1(c2ccc(N)cc2)CCC(=O)NC1=O (stereo not drawn) [Aminoglutethimide]	0	
O=C1CN2Cc3c(ccc(Cl)c3Cl)N=C2N1 [Anagrelide HCl]	0	EC50 [2]: 0.04 µM
CC(C)(C#N)c1cc(Cn2cncn2)cc(C(C)(C)C#N)c1 [Anastrozole]	0	EC50 [2]: 1.59 µM
N#CC1(c2ccc(NC(=O)c3cccnc3NCc3ccncc3)cc2)CCCC1 [Apatinib]	0	EC50 [2]: 0.05 µM
C[C@@H](O[C@H]1OCCN(Cc2n[nH]c(=O)[nH]2)[C@H]1c1ccc(F)cc1)c1cc(C(F)(F)F)cc(C(F)(F)F)c1 [Aprepitant]	0	
CO[C@H]1O[C@@H]2O[C@@]3(C)CC[C@H]4[C@H](C)CC[C@@H]([C@H]1C)[C@@]24OO3 [Artemether]	0	
CC(=O)Oc1ccccc1C(=O)O [Aspirin]	0	treatment response in words [3]: low or no activity
COC(=O)N[C@H](C(=O)N[C@@H](Cc1ccccc1)[C@@H](O)CN(Cc1ccc(-c2ccccn2)cc1)NC(=O)[C@@H](NC(=O)OC)C(C)(C)C)C(C)(C)C.O=S(=O)(O)O [Atazanavir sulfate]	0	
CNC(=O)c1ccccc1Sc1ccc2c(/C=C/c3ccccn3)n[nH]c2c1 [Axitinib]	0	
CC[C@H]1OC(=O)[C@H](C)[C@@H](O[C@H]2C[C@@](C)(OC)[C@@H](O)[C@H](C)O2)[C@H](C)[C@@H](O[C@@H]2O[C@H](C)C[C@H](N(C)C)[C@H]2O)[C@](C)(O)C[C@@H](C)CN(C)[C@H](C)[C@@H](O)[C@]1(C)O [Azithromycin]	0	
Cl.Cn1c(CCCC(=O)O)nc2cc(N(CCCl)CCCl)ccc21 [Bendamustine HCL]	0	
O=C(O)CCCN1CCC(O[C@@H](c2ccc(Cl)cc2)c2ccccn2)CC1.O=S(=O)(O)c1ccccc1 [Bepotastine Besilate]	0	

Structure (SMILES)	DSS [1]	also measured
COc1c2ccoc2cc2oc(=O)ccc12 [Bergapten]	0	EC50 [2]: 0.05 µM
C[C@H]1C[C@H]2[C@@H]3CCC4=CC(=O)C=C[C@]4(C)[C@H]3C(=O)C[C@]2(C)[C@@]1(O)C(=O)CO [Betapar]	0	
C=C(c1ccc(C(=O)O)cc1)c1cc2c(cc1C)C(C)(C)CCC2(C)C [Bexarotene]	0.12	EC50 [2]: 4.29 µM
CC(O)(CS(=O)(=O)c1ccc(F)cc1)C(=O)Nc1ccc(C#N)c(C(F)(F)F)c1 (stereo not drawn) [Bicalutamide]	0	
CCN1CCN(c2cc(-c3ccc(F)cc3)c3c(n2)CCCCCC3)CC1 [Blonanserin]	0	EC50 [2]: 0.04 µM
COc1cc(Nc2c(C#N)cnc3cc(OCCCN4CCN(C)CC4)c(OC)cc23)c(Cl)cc1Cl [Bosutinib]	0	
CS(=O)(=O)OCCCCOS(C)(=O)=O [Busulfan]	0	
CCCCCOC(=O)Nc1nc(=O)n([C@@H]2O[C@H](C)[C@@H](O)[C@H]2O)cc1F [Capecitabine]	0	EC50 [2]: 1 µM
CN1C2=CC(=O)/C(=N\NC(N)=O)C=C2CC1S(=O)(=O)[O-].[Na+] (stereo not drawn) [Carbazochrome sodium sulfonate]	0	
N.N.O=C([O-])C1(C(=O)[O-])CCC1.[Pt+2] [Carboplatin]	3.68	treatment response in words [3]: minimal treatment effects; EC50 [3]: 2.37 µM
Cc1ccc(-c2cc(C(F)(F)F)nn2-c2ccc(S(N)(=O)=O)cc2)cc1 [Celecoxib]	0	
CCN(CC)CCOc1ccc(C(=C(Cl)c2ccccc2)c2ccccc2)cc1 [Clomifene citrate]	0	
Nc1cc(C(Cl)=C(Cl)Cl)c(S(N)(=O)=O)cc1S(N)(=O)=O [Clorsulon]	0	
CC(=O)OCC(=O)[C@@]1(O)CC[C@H]2[C@@H]3CCC4=CC(=O)CC[C@]4(C)[C@H]3C(=O)C[C@@]21C [Cortisone acetate]	0	
O=P1(N(CCCl)CCCl)NCCCO1 (stereo not drawn) [Cyclophosphamide monohydrate]		DSS: 0
CN(C)/N=N/c1[nH]cnc1C(N)=O [Dacarbazine]	0	
Nc1ncn([C@H]2C[C@H](O)[C@@H](CO)O2)c(=O)n1 [Decitabine]	0	EC50 (Homo sapiens, EACN42 normal esophageal cells, 72 h): 0.17 µM
CC(=O)OCC(=O)[C@@]1(O)[C@H](C)C[C@H]2[C@@H]3CCC4=CC(=O)C=C[C@]4(C)[C@@]3(F)[C@@H](O)C[C@@]21C [Dexamethasone acetate]	0	
C[C@@H]1C[C@H]2[C@@H]3CCC4=CC(=O)C=C[C@]4(C)[C@@]3(F)[C@@H](O)C[C@]2(C)[C@@]1(O)C(=O)CO [Dexamethasone]	0	
CC/C(=C(/CC)c1ccc(O)cc1)c1ccc(O)cc1 [Diethylstilbestrol]	0	
CCN[C@H]1C[C@H](C)S(=O)(=O)c2sc(S(N)(=O)=O)cc21 [Dorzolamide HCL]	0.01	
C=C1/C(=C\C=C2/CCC[C@]3(C)[C@@H]([C@H](C)/C=C/[C@H](C)C(C)C)CC[C@@H]23)C[C@@H](O)C[C@@H]1O [Doxercalciferol]	0	EC50 [2]: 0.007 µM

Structure (SMILES)	DSS [1]	also measured
CC1=NN(c2ccc(C)c(C)c2)C(=O)/C1=N\Nc1cccc(-c2cccc(C(=O)O)c2)c1O [Eltrombopag]	0.32	EC50 [2]: 4.66 µM
CNC(=O)c1ccc(N2C(=S)N(c3ccc(C#N)c(C(F)(F)F)c3)C(=O)C2(C)C)cc1F [Enzalutamide]	0	
CNC[C@H](O)c1ccc(O)c(O)c1 [Epinephrine bitartrate]	0	
C#Cc1cccc(Nc2ncnc3cc(OCCOC)c(OCCOC)cc23)c1 [Erlotinib HCl]	0	
COc1ccc2[n-]c([S@@+]([O-])Cc3ncc(C)c(OC)c3C)nc2c1.[Na+] [Esomeprazole sodium]	0	
C[C@]12CC[C@@H]3c4ccc(O)cc4CC[C@H]3[C@@H]1CC[C@@H]2O [Estradiol]	0	
C[C@]12CC[C@@H]3c4ccc(O)cc4CC[C@H]3[C@@H]1CCC2=O [Estrone]	0	
O=C(c1ccc(OCCN2CCCCC2)cc1)c1c(-c2ccc(O)cc2)sc2cc(O)ccc12 [Evista]	0	
C=C1C[C@@H]2[C@H](CC[C@]3(C)C(=O)CC[C@@H]23)[C@@]2(C)C=CC(=O)C=C12 [Exemestane]		DSS (72 h): 0
O=C1[C@H](CC[C@H](O)c2ccc(F)cc2)[C@@H](c2ccc(O)cc2)N1c1ccc(F)cc1 [Ezetimibe]	0	
CC(=O)OCC(CCn1cnc2cnc(N)nc21)COC(C)=O [Famciclovir]	0	EC50 [2]: 1.12 µM
Cc1nc(-c2ccc(OCC(C)C)c(C#N)c2)sc1C(=O)O [Febuxostat]	0	EC50 [2]: > 10 µM
Cl.Cl.Fc1ccc(C(c2ccc(F)cc2)N2CCN(C/C=C/c3ccccc3)CC2)cc1 [Flunarizine 2HCl]	0.03	
CC(C)C(=O)Nc1ccc([N+](=O)[O-])c(C(F)(F)F)c1 [Flutamide]	0	
O=c1[nH]c(=O)n(C2CCCO2)cc1F (stereo not drawn) [Ftorafur]	0	
C[C@]12CC[C@@H]3c4ccc(O)cc4C[C@@H](CCCCCCCCC[S+]([O-])CCCC(F)(F)C(F)(F)F)[C@H]3[C@@H]1CC[C@@H]2O (stereo partly drawn) [Fulvestrant]	0	
COc1cc2ncnc(Nc3ccc(F)c(Cl)c3)c2cc1OCCCN1CCOCC1 [Gefitinib]	0	
O=C(O)C1=CO[C@@H](O[C@@H]2O[C@H](CO)[C@@H](O)[C@H](O)[C@H]2O)[C@@H]2C(CO)=CC[C@H]12 [Geniposidic acid]	0	
C[C@]12CCC(=O)C=C1CC[C@@H]1[C@@H]2[C@@H](O)C[C@@]2(C)[C@H]1CC[C@]2(O)C(=O)CO [Hydrocortisone]	0	
NC(=O)NO [Hydroxyurea]	0	
